Earlier results, collected in patent publication US20070031367A1, “Composition and method for neck skin firming” (priority 2004, published 2007).

COc1cc(CNC(=O)CCCC/C=C/C(C)C)ccc1O [Capsaicin, N-canillyl-8-methyl-6-(E)-noneamide]
Solubility in fats, oils and alcohol (fats, oils and alcohol): very soluble
Solubility in water (water): sparingly soluble
